Test results taken from ChEMBL document CHEMBL6153148, “Carboxamide-Bearing Panobinostat Analogues Designed To Interact with E103-D104 at the Cavity Opening of Class I HDAC Isoforms” (ACS Med Chem Lett, 2025).

molecular target: Histone deacetylase 2 (Homo sapiens, UniProt Q92769); experiment: Inhibition of human HDAC2 using RHKKAc as substrate by fluorescence based analysis
Sequence (Q92769 whole entry): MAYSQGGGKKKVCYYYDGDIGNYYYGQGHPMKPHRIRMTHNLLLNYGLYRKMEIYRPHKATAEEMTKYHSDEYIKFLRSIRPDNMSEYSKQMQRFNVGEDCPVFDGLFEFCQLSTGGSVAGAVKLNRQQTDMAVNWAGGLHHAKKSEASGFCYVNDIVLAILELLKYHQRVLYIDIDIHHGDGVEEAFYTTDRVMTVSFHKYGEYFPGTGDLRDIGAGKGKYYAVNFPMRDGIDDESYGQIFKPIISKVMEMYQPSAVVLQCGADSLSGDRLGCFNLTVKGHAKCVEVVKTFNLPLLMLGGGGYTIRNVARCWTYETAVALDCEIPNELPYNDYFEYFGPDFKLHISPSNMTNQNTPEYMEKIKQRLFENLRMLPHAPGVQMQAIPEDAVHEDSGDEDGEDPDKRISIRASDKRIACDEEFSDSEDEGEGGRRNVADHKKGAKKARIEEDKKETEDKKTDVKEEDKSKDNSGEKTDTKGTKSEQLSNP

Row | Compound | IC50
1 | NC(=O)[C@H]1Cc2c([nH]c3ccccc23)[C@H](c2ccc(/C=C/C(=O)NO)cc2)N1 | 3320 nM
2 | NC(=O)[C@@H]1Cc2c([nH]c3ccccc23)[C@@H](c2ccc(/C=C/C(=O)NO)cc2)N1 | 450 nM
3 | NC(=O)[C@@H](Cc1c[nH]c2ccccc12)NCc1ccc(/C=C/C(=O)NO)cc1 | 420 nM
4 | Cc1[nH]c2ccccc2c1C[C@@H](NCc1ccc(/C=C/C(=O)NO)cc1)C(N)=O | 530 nM
5 | NC(=O)[C@H](Cc1c[nH]c2ccccc12)NCc1ccc(/C=C/C(=O)NO)cc1 | 350 nM
6 | NC(=O)[C@@H]1Cc2c([nH]c3ccccc23)[C@H](c2ccc(/C=C/C(=O)NO)cc2)N1 | 450 nM
7 | NC(=O)[C@H]1Cc2c([nH]c3ccccc23)[C@@H](c2ccc(/C=C/C(=O)NO)cc2)N1 | 3320 nM
8 | Cc1[nH]c2ccccc2c1C[C@H](NCc1ccc(/C=C/C(=O)NO)cc1)C(N)=O | 150 nM
